Experimental data taken from the supplement of paper PMC4862054.

Columns and labels:
Conditions in all cases: incubation time: 72 h
[1] = tested on: CAL-85-1; test: normalised viability (% of control), CellTiter-Blue; higher = more viable cells (about 100 = DMSO control)
Procedure: (§1)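 DSRT, CellTiter-Blue viability, 72 h incubation. Signal is normalised to DMSO and benzethonium chloride controls. Value is the normalised response at dose 9.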

[2] = tested on: DU-4475; test: as above
Procedure: as §1

[3] = tested on: MDA-MB-453; test: as above
Procedure: as §1

[4] = tested on: HDQ-P1; test: as above
Procedure: as §1

[5] = tested on: CAL-148; test: as above
Procedure: as §1

[6] = tested on: CAL-51; test: as above
Procedure: as §1

[7] = tested on: CAL-120; test: normalised viability (% of control), CellTiter-Blue; higher = more viable cells (100 = DMSO, 0 = benzethonium chloride kill control)
Procedure: (§2)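 DSRT, CellTiter-Blue viability, 72 h incubation. Signal is normalised to DMSO and benzethonium chloride controls. Value is the normalised response at dose 1.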

[8] = tested on: HCC1143; test: as above
Procedure: as §2

[9] = tested on: CAL-85-1; test: as above
Procedure: as §2

[10] = tested on: SK-BR-3; test: as above
Procedure: as §2

[11] = tested on: DU-4475; test: as above
Procedure: as §2

[12] = tested on: Hs578T; test: as above
Procedure: as §2

[13] = tested on: MDA-MB-468; test: as above
Procedure: as §2

[14] = tested on: MDA-MB-436; test: as above
Procedure: as §2

[15] = tested on: MDA-MB-453; test: as above
Procedure: as §2

[16] = tested on: BT-549; test: as above
Procedure: as §2

[17] = tested on: MFM-223; test: as above
Procedure: as §2

[18] = tested on: BT-474; test: as above
Procedure: as §2

[19] = tested on: HDQ-P1; test: as above
Procedure: as §2

[20] = tested on: MDA-MB-231; test: as above
Procedure: as §2

[21] = tested on: HCC1599; test: as above
Procedure: as §2

[22] = tested on: CAL-148; test: as above
Procedure: as §2

[23] = tested on: CAL-51; test: as above
Procedure: as §2

[24] = tested on: HCC1937; test: as above
Procedure: as §2

Row | SMILES | normalised viability [1] [%] | normalised viability [2] [%] | normalised viability [3] [%] | normalised viability [4] [%] | normalised viability [5] [%] | normalised viability [6] [%] | normalised viability [7] [%] | normalised viability [8] [%] | normalised viability [9] [%] | normalised viability [10] [%] | normalised viability [11] [%] | normalised viability [12] [%] | normalised viability [13] [%] | normalised viability [14] [%] | normalised viability [15] [%] | normalised viability [16] [%] | normalised viability [17] [%] | normalised viability [18] [%] | normalised viability [19] [%] | normalised viability [20] [%] | normalised viability [21] [%] | normalised viability [22] [%] | normalised viability [23] [%] | normalised viability [24] [%]
1 | Cc1ccc(C(=O)N(CCCN)[C@@H](c2oc3cc(Cl)ccc3c(=O)c2Cc2ccccc2)C(C)C)cc1 (1000 nM) | 32.5 | 7.45 | 24.6 | 72.4 | 17.6 | 18.8 | – | – | – | – | – | – | – | – | – | – | – | – | – | – | – | – | – | –
2 | NC(=O)Nc1cc(-c2cccc(F)c2)sc1C(=O)N[C@H]1CCCNC1 [AZD 7762] (0.1 nM) | – | – | – | – | – | – | 102 | 115 | 107 | 102 | 101 | 124 | 111 | 115 | 117 | 108 | 108 | 115 | 132 | 115 | 89 | 104 | 101 | 119
3 | NC(=O)Nc1cc(-c2cccc(F)c2)sc1C(=O)N[C@H]1CCCNC1 [AZD 7762] (1000 nM) | 22.8 | 0.66 | 19.6 | 18 | 21.4 | 8.63 | – | – | – | – | – | – | – | – | – | – | – | – | – | – | – | – | – | –
4 | NCC(=O)CCC(=O)O [Aminolevulinic acid] (1 nM) | – | – | – | – | – | – | 86.6 | 91.7 | 99.4 | 89 | 107 | 104 | 103 | 105 | 98.8 | 91.1 | 96.5 | 108 | 110 | 118 | 85 | 109 | 107 | 79.4
5 | NCC(=O)CCC(=O)O [Aminolevulinic acid] (10000 nM) | 76.9 | 111 | 87.7 | 106 | 104 | 83.2 | – | – | – | – | – | – | – | – | – | – | – | – | – | – | – | – | – | –
6 | CCN(CCCOc1ccc2c(Nc3cc(CC(=O)Nc4cccc(F)c4)[nH]n3)ncnc2c1)CCOP(=O)(O)O [Barasertib] (0.1 nM) | – | – | – | – | – | – | 95.5 | 107 | 105 | 108 | 123 | 135 | 112 | 118 | 93.3 | 103 | 102 | 109 | 96.5 | 113 | 105 | 105 | 95.4 | 104
7 | CCN(CCCOc1ccc2c(Nc3cc(CC(=O)Nc4cccc(F)c4)[nH]n3)ncnc2c1)CCOP(=O)(O)O [Barasertib] (1000 nM) | 81.2 | 40.8 | 44.1 | 96.2 | 26.3 | 42 | – | – | – | – | – | – | – | – | – | – | – | – | – | – | – | – | – | –
